Patent US20150247149A1, “Detecting and Treating Liver Damage” (The Regents of the University of California, priority 2012, published 2015)

Assays:
HUVECs [1] = assay: Internalization of microparticles into endothelial cells; format: cell-based, human; conditions: HUVECs pre-treated with 10 mM MβCD 15 min or 2.5 μg/mL cav-1 nAb 30 min at 37° C., then MPs 6 h
Protocol: Internalization of hepatocyte-derived MPs into HUVECs and the role of VNN1 and lipid raft were evaluated by flow cytometry, indirect immunofluorescence and electron microscopy. To investigate the MPs internalization into HUVECs, by flow cytometry, MPs were stained with 1 μM of Calcein, AM (MPCalcein) (BD Biosciences), a fluorescent dye with an emission wavelength of 515 nm, for 1 h in the dark at 37° C. MPs were centrifuged twice with PBS for 30 minutes at 35,000 rpm and resuspended in 500 μL of EGM medium. To block MPs internalization, MPsCalcein were incubated with or without 4 μg/mL of rabbit polyclonal anti-VNN1 antibody (S3055; Epitomics, Burlingame, Calif., USA) for 30 minutes at RT. A rabbit anti-GAPDH antibody (Abcam, Cambridge, Mass., USA) was used as a control. […] Cells were trypsinized and FITC positive HUVECs were detected by BD LSRII Flow Cytometer System (BD) and counted. […]
The MPs suspension was incubated in the dark for 4 minutes, and then 2 mL of 1% BSA was added and kept for 1 minute to stop the reaction. […] HUVECs (4×10^3 cell per well) were seeded onto a 24-well plate and depletion of cholesterol was assessed by a treatment with 10 mM of Methyl-β-cyclodextrin (MβCD) in serum-free EBM-2 medium for 15 minutes at 37° C., followed by wash with fresh medium. […]

HUVECs [2] = assay: HUVEC tube formation assay; format: cell-based, human
Protocol: HUVECs (0.5-1×10^5 cells per well) were seeded onto a coated 24-well plate culture dishes with 200 μl/cm2 (thick gel method) of Matrigel (BD, Franklin Lakes, N.J., USA) and cultured in EBM-2 basal medium supplemented with 1.1% of streptomycin and penicillin in the presence of 100 ng/mL of VEGF (Peprotech, Rocky Hill, N.J., USA), hepatocytes-derived MPs, MP-free supernatant or conditioned supernatant collected after 24 hours of treatment with FFAs. In selective studies, a specific inhibitor for RhoA-ROCK (Y27632, 10 μM) was used in association with MPs in the treatment of endothelial cells. For the ex vivo studies, PFP isolated from different groups of mice (chow, HF/HCarb, MCD fed mice and mice injected with control RNA, VNN1 siRNA or PBS as vehicle) were ultracentrifuged at 100,000 g for 1 h at 10° C. to pellet the blood MPs. HUVECs were treated with MPs (or blood pure MPs) and incubated for 5 h at 37° C. Tube formation was investigated by using an inverted microscope at 4× magnification and images were captured. Tube formation image analysis was assessed by using Wimtube software (Wimasis, Munich, Germany) and the values referred to total tube length (pixel) were used for statistical and data analysis.

HUVECs [3] = assay: HUVEC migration (Boyden's chamber chemotaxis, wound healing); format: cell-based, human
Protocol: In vitro migration studies have been performed by using human umbilical cell endothelial cells (HUVECs). Wound healing assay was performed to analyze chemokinesis (non-oriented migration) by using collagen-coated 6-well culture plate, where a silicon elastomer (PDMS) strip was placed vertically to the bottom of every well to create the artificial wound. HUVECs were plated and grown until reaching the complete confluence. HUVECs were treated with EBM-2 supplemented with 100 ng/mL of VEGF (Peprotech, Rocky Hill, N.J., USA), hepatocytes-derived MPs, MP-free supernatant or supernatant collected after 24 hours of treatment with FFAs. The strips were removed carefully and migration of cells was detected by a confocal microscope, capturing one picture per field every 10 minutes for 48 hours. Mitomycin (1 μg/ml) was used to inhibit cell proliferation during wound healing assay. Data were analyzed by using Wimscratch software (Wimasis, Munich, Germany) in order to get the total cell-covered area (pixel). Boyden's chamber assay was performed to analyze chemotaxis (oriented migration) by using cell culture inserts 8 μm pore size (Millipore, Billerica, Mass., USA) and 24-well plate. Each well was filled with 500 μl of serum free EBM-2 media in presence or absence of the following chemoattractants: 100 ng/mL VEGF; hepatocytes-derived MPs; MP-free supernatant or conditioned supernatant. The inserts were placed on top of each well and 150 μl of cell suspension (5×10^4 cells) was added. Plates were incubated overnight at 37° C., and then the filters were removed and stained with Vectashield mounting medium with 4′,6-diamino-2-phenylindole (DAPI) (Vector Labs, Burlingame, Calif., USA).
Migrated cells were detected with a fluorescence microscope and number per field of their nuclei was counted. For the ex vivo studies, PFP isolated from different groups of mice (chow, HF/HCarb, MCD fed mice and mice injected with control siRNA, VNN1 siRNA or PBS as vehicle) were ultracentrifuged at 100,000 g for 1 h at 10° C. to pellet the blood MPs.

[4] = test system: HepG2 and primary rat hepatocytes; assay: Release of Annexin V-positive MPs from hepatocytes (flow cytometry); format: cell-based, human (HepG2); rat (primary hepatocytes); conditions: palmitic acid-treated hepatocytes co-incubated with caspase 3 inhibitor (FIGS. 2E, 2G)
Protocol: For microparticles (MPs) isolation, HepG2 and primary rat hepatocytes were seeded onto a 100 mm dish and cultured until reaching 80-85% of confluence. Cells were incubated with 0.25 mM of palmitic, stearic, oleic or linoleic acid (FFA) in serum-free DMEM, supplemented with 1.1% penicillin and streptomycin, 1% endotoxin-free bovine serum albumin (BSA), for up to 24 h. […] The uptake of FFAs from hepatocytes was evaluated by Oil red-O staining kit (Cayman, Ann Arbor, Mich., USA) according to the manufacturer instruction. To determine the effect of caspase 3 activity, hepatocytes were treated with a selective caspase 3 inhibitor, Ac-DEVD-CHO (BD Pharmingen, Franklin Lakes, N.J., US). Control cells were incubated with the same serum-free media in association to the vehicle that was used to dissolve the FFAs. After 24 h, the supernatant were collected and centrifuged twice at 3,000 rpm for 15 minutes to remove cell debris and aggregates. The supernatant was then transferred to new tubes and ultracentrifuged at 100,000 g for 90 minutes at 10° C., to avoid contamination of exosomes.
The supernatant was collected in new tubes and used as a MP-free control and the pelleted MPs were resuspended in 200 μl of PBS for flow cytometry or in 500 μl of EGM-2 growth medium for subsequent in vitro studies. The concentration of microparticles μg/mL was determined by the BCA protein assay and different concentrations of MPs (50, 125, 250 and 500 μg/mL) were used to perform the dose-dependent angiogenesis in vitro assays. For selected purposes, in particular for the characterization analyses, crude MPs were purified by 10-70% sucrose gradient ultracentrifugation at 150,000 g for 18 h at 10° C., collected as fractions in new tubes. […]
Flow cytometry analyses for microparticles (or endothelial cells) detection were performed by using BD LSRII Flow Cytometer System (BD Biosciences, San Jose, Calif., USA) and the data were analyzed using FlowJo software (TreeStar Inc., Ashland, Oreg., USA). […]

[5] = HUVECs treated with MPs and Y27632, 10 μM

Compound: Methyl-β-cyclodextrin
- MPs internalization into the endothelial cells (HUVECs [1]): marked reduction

Compound: CCCCCCCCCCCCCCCCCC(=O)O [stearic acid]
- tube formation induced by cell-free supernatants of FFA-treated hepatocytes (HUVECs [2]; supernatants from HepG2/primary rat hepatocytes incubated with FFA up to 24 h, VEGF-A positive control): marked increase
- endothelial cell oriented (chemotaxis) and non-oriented migration induced by cell-free supernatants of FFA-treated hepatocytes (HUVECs [3]; supernatants from hepatocytes incubated with FFA up to 24 h, VEGF-A positive control): marked increase

Compound: Ac-DEVD-CHO [selective caspase 3 inhibitor]
- formation and release of MPs [4]: drastically reduced

Compound: C[C@@H](N)[C@H]1CC[C@H](C(=O)Nc2ccncc2)CC1 [Y-27632]
- tube formation (MP-mediated) (HUVECs [2]; [5]): significant decrease
- chemotaxis (MP-mediated) (HUVECs [3]; [5]): significant decrease
